A short description of the series: RP, Thermo Scientific Syncronis C18, 100 × 2.1 mm, 1.7 µm, 0.3 mL/min, estimated dead time 0.73 min; A: water + 0.1% acetic acid; B: acetonitrile + 0.1% acetic acid; gradient (min/%B) 0/5 1/5 16/95. The note with it: stereoisomer not certain.

Each structure is given as a SMILES string.

Take `O=c1c(O)c(-c2ccccc2)oc2cc(O)cc(O)c12`: the LC retention time was 11.8 min.

As to `COc1cc(-c2oc3cc(O)cc(O)c3c(=O)c2O)ccc1O`, the LC retention time is 9.87 min.

On to `CC1OC(OC2C(Oc3cc(O)c4c(c3)OC(c3ccc(O)cc3)CC4=O)OC(CO)C(O)C2O)C(O)C(O)C1O` (stereo unspecified), for which the LC retention time is 7.03 min.

As to `O=C(O)c1ccc(O)c(O)c1`, the LC retention time was 4.44 min.

Turning to `O=C1c2c(O)cc(O)cc2OC(c2ccccc2)C1O` (stereo unspecified), the LC retention time was 9.74 min.

For `O=c1ccc2cc(OC3OC(CO)C(O)C(O)C3O)c(O)cc2o1` (stereo unspecified), the LC retention time was 4.91 min.

For `O=c1c(O)c(-c2ccc(O)c(O)c2)oc2cc(O)cc(O)c12`, the LC retention time was 8.24 min.

Consider `COc1cc(C=CC(=O)O)ccc1O`, for which the LC retention time was 7.04 min.

As to `COc1cc(-c2cc(=O)c3c(O)cc(O)cc3o2)ccc1O`, the LC retention time was 9.94 min.

Regarding `COc1cc(C(=O)O)ccc1O`, the LC retention time was 5.63 min.

On to `O=c1cc(-c2ccc(O)c(O)c2)oc2cc(O)cc(O)c12`, for which the LC retention time is 8.69 min.

Regarding `COc1cc(C=CC(=O)O)cc(OC)c1O`, the LC retention time was 7.02 min.

Take `O=C(O)c1ccc(O)cc1`: the LC retention time was 5.41 min.

For `O=c1c(O)c(-c2ccc(O)cc2)oc2cc(O)cc(O)c12`, the LC retention time was 9.7 min.

For the molecule `O=c1cc(-c2ccccc2)oc2cc(O)cc(O)c12`, the LC retention time was 11.6 min.

Consider `O=C(O)C=Cc1ccc(O)cc1`, for which the LC retention time is 6.68 min.

As for `CC1OC(OCC2OC(Oc3c(-c4ccc(O)c(O)c4)oc4cc(O)cc(O)c4c3=O)C(O)C(O)C2O)C(O)C(O)C1O` (stereo unspecified), the LC retention time was 6.44 min.

On to `O=C(O)c1cc(O)ccc1O`, for which the LC retention time is 5.48 min.

Turning to `O=C1CC(c2ccccc2)Oc2cc(O)cc(O)c21` (stereo unspecified), the LC retention time was 11.7 min.

With `O=C1CC(c2ccc(O)c(O)c2)Oc2cc(O)cc(O)c21` (stereo unspecified), the LC retention time is 8.59 min.

For `COc1cc(C=CC=O)ccc1O`, the LC retention time was 7.9 min.

`COc1ccc(-c2cc(=O)c3c(O)cc(O)cc3o2)cc1`: the LC retention time is 12.2 min.

Take `O=c1cc(-c2ccc(O)cc2)oc2cc(O)cc(O)c12`: the LC retention time was 9.52 min.

On to `O=C1CC(c2ccc(O)cc2)Oc2cc(O)cc(O)c21` (stereo unspecified), for which the LC retention time is 9.44 min.

For the molecule `COc1ccc(-c2oc3cc(O)cc(O)c3c(=O)c2O)cc1`, the LC retention time was 11.8 min.

Regarding `O=C(C=Cc1ccc(O)c(O)c1)OC1CC(O)(C(=O)O)CC(O)C1O` (stereo unspecified), the LC retention time was 5.26 min.

Regarding `CC1OC(Oc2c(-c3ccc(O)c(O)c3)oc3cc(O)cc(O)c3c2=O)C(O)C(O)C1O` (stereo unspecified), the LC retention time was 7.17 min.

For the molecule `O=c1c(OC2OC(CO)C(O)C(O)C2O)c(-c2ccc(O)c(O)c2)oc2cc(O)cc(O)c12` (stereo unspecified), the LC retention time was 6.71 min.

On to `COc1cc(O)c2c(=O)cc(-c3ccc(O)cc3)oc2c1`, for which the LC retention time is 10.8 min.

As to `O=C(O)Cc1ccc(O)cc1`, the LC retention time is 5.62 min.

`O=c1c(-c2ccc(O)cc2)coc2cc(O)cc(O)c12`: the LC retention time is 9.53 min.

Source of the values: the RepoRT retention time repository (doi:10.1016/j.foodchem.2018.09.045).
